{
  "source": "patent US20060111286A1",
  "about": "“Method of modulating endothelial cell activity” (priority 2002, published 2006)",
  "molecules": {"B1": {"name": "Angiopoietin-1 (protein, UniProt Q15389 16-498, looked up)", "Angiopoietin-1": "HIGCSNQRRSPENSGRRYNRIQHGQCAYTFILPEHDGNCRESTTDQYNTNALQRDAPHVEPDFSSQKLQHLEHVMENYTQWLQKLENYIVENMKSEMAQIQQNAVQNHTATMLEIGTSLLSQTAEQTRKLTDVETQVLNQTSRLEIQLLENSLSTYKLEKQLLQQTNEILKIHEKNSLLEHKILEMEGKHKEELDTLKEEKENLQGLVTRQTYIIQELEKQLNRATTNNSVLQKQQLELMDTVHNLVNLCTKEGVLLKGGKREEEKPFRDCADVYQAGFNKSGIYTIYINNMPEPKKVFCNMDVNGGGWTVIQHREDGSLDFQRGWKEYKMGFGNPSGEYWLGNEFIFAITSQRQYMLRIELMDWEGNRAYSQYDRFHIGNEKQNYRLYLKGHTGTAGKQSSLILHGADFSTKDADNDNCMCKCALMLTGGWWFDACGPSNLNGMFYTAGQNHGKLNGIKWHYFKGPSYSLRSTTMMIRPLDF", "notes": "Angiopoietin-1, obtained from Regeneron Inc"}},
  "key": {"[1]": {"test_system": "human umbilical vein endothelial cells", "experiment": "Endothelial permeability assay: passage of FITC-conjugated dextran through thrombin-treated endothelial cell monolayers in transwells", "format": "cell-based", "settings": "then thrombin 0.2 U/ml", "description": "Cells were used at passage 4 or less. For infection with adenoviral constructs, cells were grown to 80% confluence and exposed to 2.5×10^6 plaque forming units/25 cm^2 culture area for 2 hours in M119 medium with 2% FCS and a further 22 hours with 20% FCS.\nEndothelial cells (10^5) were cultured in transwells (3 μ-pore size, Corning Costar Corp, Cambridge, Mass., USA) for 24 hours in complete medium and then in 2% FCS medium for a further 24 hours. Cells were pre-treated with either bisindolylmaleimide I (10 nM or 6 μM), Calphostin C (100 nM), chelerythrine chloride (1 μM), H-89 (50 nM) or angiopoietin-1 (0.1 μg/ml), as required. FITC-conjugated dextran (0.2 μg) was added to the upper chamber of all wells and cells were then treated with thrombin (0.2 U/ml). […] Adenovirus infected ECs were plated on to transwells 24 hours after the above infection procedure and treated in the same manner as uninfected cells."}, "protein kinase Cζ [2]": {"test_system": "protein kinase Cζ", "experiment": "Immunofluorescence staining of protein kinase Cζ localisation in endothelial cell monolayers", "format": "cell-based, human", "settings": "for effect on thrombin stimulated protein kinase Cζ relocalisation to the membrane: then thrombin 0.2 U/ml", "description": "(§1) Human umbilical vein endothelial cells were grown in M119 medium with 20% foetal calf serum (FCS) as described (Litwin, M., Clark, K., Noack, L., Furze, J., Berndt, M., Albelda, S., Vadas, M., Gamble, J. (1997) J Cell Biol. 139:219-28). Cells were used at passage 4 or less. For infection with adenoviral constructs, cells were grown to 80% confluence and exposed to 2.5×10^6 plaque forming units/25 cm^2 culture area for 2 hours in M119 medium with 2% FCS and a further 22 hours with 20% FCS.\n(§2) 6×10^4 endothelial cells were cultured in fibronectin coated glass LabTek chamber slides (Nalge Nunc International, Naperville, Ill., USA) and incubated for 3 days prior to staining. Cells were then treated with angiopoietin-1, thrombin and/or bisindolylmaleimnide I, as required. Cells were washed once in PBS, fixed in 4% paraformnaldehyde/PBS for 5 minutes, permeabilized with acetone for 5 min at −20° C. and then washed twice with PBS. The fixed cells were incubated with rabbit anti-protein kinase Cζ immunoaffmity purified IgG or anti-protein kinase Cλ (BD Transduction Laboratories, San Diego, Calif., USA) overnight at 4° C. followed by FITC-conjugated anti-rabbit antibody (Rockland, Gilbertsville Pa., USA). Coverslips were mounted using fluorescent microscopy mounting medium (Dako Corp., Carpinteria, Calif., USA). Cells were imaged by epifluorescent microscopy on an Olympus BX-51 microscope (Olympus, Hamburg, Germany) equipped with excitation filters for fluorescein (494 nm) acquired to a Photometrics Cool Snap FX charge-coupled device camera (Roper Scientific GmbH, Germany). Images were adjusted for brightness and contrast using V^++ software (Digital Optics Ltd., Aucldand, New Zealand)."}, "protein kinase Cζ [3]": {"test_system": "protein kinase Cζ", "experiment": "Immunoblotting for phosphorylated Thr410 of over-expressed protein kinase Cζ in endothelial cells", "format": "cell-based, human", "settings": "for effect on thrombin stimulated protein kinase Cζ phosphorylation (Thr410): then thrombin 0.2 U/ml, FLAG-protein kinase Cζ over-expressing cells", "description": "as §1\nEndothelial cells were plated into fibronectin coated flasks before infection as above. Following infection, cells were serum depleted (0.2% FCS) overnight. Cells were then treated with angiopoietin-1, thrombin and/or bisindolylmaleimide I, as required, lysed in ice-cold lysis buffer (50 mM Tris.HCl, pH 7.4, with 1% NP-40, 150 mM NaCl, 2 mM EGTA, 1 mM NaPO4, 100 mM NaF, 10 mM sodium pyrophosphate and protease inhibitor cocktail). Protein concentrations were assayed using Bradford Reagent (BioRad, Hercules, Calif., USA). Equal amounts of protein were loaded onto 10% acrylamide gels, separated by SDS-PAGE, transferred to PVDF membrane, blocked with 5% skim milk powder and 0.1% Triton-X100 in phosphate buffered saline, and probed with a polyclonal rabbit antibody directed against phosphorylated Thr410 of the activation loop of protein kinase Cζ (Chou, M. M., Hou, W., Johnson, J., Graham, L. K., Lee, M. H., Chen, C. S., Newton, A. C., Schaffhausen, B. S., Toker, A. (1998) Curr Biol. 8:1069-77). This antibody was a generous gift from Dr Alex Toker. After washing, membranes were incubated with anti-rabbit secondary antibody and reactive bands were detected by chemiluminescence (ECL Western Blotting Detection Reagents, Amersham Pharmacia Biotech, Little Chalfont, England, UK). Membranes were stripped using stripping buffer (Re-Blot Plus Western Blot Recycling Kit, Chemicon, Temecula Calif., USA) and re-probed with rabbit anti-protein kinase Cζ immunoaffinity purified IgG (Upstate Biotechnology, Lake Placid N.Y., USA)."}, "[4]": {"test_system": "protein kinase C isoforms", "settings": "cited from earlier work"}, "protein kinase Cλ": {"test_system": "protein kinase Cλ", "experiment": "Immunofluorescence staining of protein kinase Cλ localisation in endothelial cell monolayers", "format": "cell-based, human", "settings": "thrombin 0.2 U/ml alone, confluent monolayers", "description": "as §1\nas §2, with “Cells were imaged by epifluorescent microscopy on an Olympus BX-51 microscope (Olympus, Hamburg, Germany) equipped with excitation filters for fluorescein (494 nm) acquired to a Photometrics Cool Snap FX charge-coupled device camera (Roper Scientific GmbH, Germany). Images were adjusted for brightness and contrast using V^++ software (Digital Optics Ltd., Aucldand, New Zealand).” left out"}},
  "note": "“Also recorded” adds a separate entry of the source. Like-named read-outs stand apart in the source and are kept apart here.",
  "data": [
    {"molecule": "O=S(=O)(NCCNC/C=C/c1ccc(Br)cc1)c1cccc2cnccc12", "note": "[H-89]", "values": [
      {"measurement": "effect on thrombin stimulated endothelial cell permeability increase", "setting": "[1]; 50 nM, pre-treated 15 mins", "result": "has no effect on thrombin induced permeability changes; also recorded: has no effect on thrombin-stimulated permeability increases"}
    ]},
    {"molecule": "CN(C)CCCn1cc(C2=C(c3c[nH]c4ccccc34)C(=O)NC2=O)c2ccccc21.Cl", "note": "[bisindolylmaleimide I, Bisindolylmaleimide I hydrochloride]", "values": [
      {"measurement": "effect on thrombin stimulated endothelial cell permeability increase", "setting": "[1]; 100 nM, pre-treated 15 mins", "result": "had no effect on the thrombin-induced increases of endothelial cell permeability"},
      {"measurement": "effect on thrombin stimulated endothelial cell permeability increase", "setting": "[1]; 6 μM, pre-treated 15 mins, hydrochloride", "result": "inhibited thrombin stimulation of endothelial cell permeability"},
      {"measurement": "effect on thrombin stimulated endothelial cell permeability increase", "setting": "[1]; 6 μM, pre-treated 15 mins, listed as Bisindolylmaleimide I, hydrochloride", "result": "blocks thrombin-stimulated permeability increases"},
      {"measurement": "effect on thrombin stimulated protein kinase Cζ relocalisation to the membrane", "setting": "protein kinase Cζ [2]; 6 μM for 15 minutes", "result": "dramatically decreased"},
      {"measurement": "effect on thrombin stimulated protein kinase Cζ phosphorylation (Thr410)", "setting": "protein kinase Cζ [3]; 6 μM for 15 minutes", "result": "inhibited thrombin stimulated protein kinase Cζ phosphorylation"},
      {"measurement": "protein kinase C isoforms inhibited", "setting": "[4]; 100 nM", "result": "inhibits classical and novel protein kinase C isoforms"},
      {"measurement": "protein kinase C isoforms inhibited", "setting": "[4]; 6 μM", "result": "inhibits all protein cinase C isoforms"}
    ]},
    {"molecule": "Calphostin C", "values": [
      {"measurement": "effect on thrombin stimulated endothelial cell permeability increase", "setting": "[1]; 100 nM, pre-treated 15 mins", "result": "had no effect on the thrombin-induced increases of endothelial cell permeability; also recorded: does not block thrombin-stimulated permeability increases"}
    ]},
    {"molecule": "Thrombin", "values": [
      {"measurement": "protein kinase Cζ localisation", "setting": "protein kinase Cζ [2]; thrombin 0.2 U/ml alone, confluent monolayers", "result": "localized to the cell membrane"},
      {"measurement": "phosphorylation of over-expressed protein kinase Cζ (Thr410)", "setting": "protein kinase Cζ [3]; thrombin 0.2 U/ml for 15 minutes alone", "result": "increased the phosphorylation of over-expressed protein kinase Cζ"},
      {"measurement": "protein kinase Cλ localisation", "setting": "protein kinase Cλ", "result": "remained evenly distributed"}
    ]},
    {"molecule": "B1", "values": [
      {"measurement": "effect on thrombin stimulated endothelial cell permeability increase", "setting": "[1]; 0.1 μg/ml, pre-treated 30 min", "result": "inhibiting thrombin stimulated endothelial cell permeability increases"},
      {"measurement": "effect on thrombin stimulated endothelial cell permeability increase", "setting": "[1]; 0.1 μg/ml, pre-treated 30 min, listed as Angiopoietin-1", "result": "can inhibit the thrombin-induced increase of endothelial cell permeability"},
      {"measurement": "effect on thrombin stimulated protein kinase Cζ relocalisation to the membrane", "setting": "protein kinase Cζ [2]; 0.1 μg/ml for 30 minutes", "result": "dramatically decreased; also recorded: blocking thrombin stimulated protein kinase Cζ relocalisation"},
      {"measurement": "effect on thrombin stimulated protein kinase Cζ phosphorylation (Thr410)", "setting": "protein kinase Cζ [3]; 0.1 μg/ml for 30 minutes", "result": "inhibited thrombin stimulated protein kinase Cζ phosphorylation; also recorded: blocking thrombin stimulated protein kinase Cζ phoshorylation"}
    ]}
  ]
}
